The numbers were not newly measured in PubChem BioAssay AID1259409 (Chemical Carcinogenesis Research Information System (CCRIS), 2018), which cites them from elsewhere.

The subject of this series is rodent chemically induced tumor inhibition, incidence and multiplicity. Put plainly: CCRIS tumor inhibitor studies. The conditions noted are these: Promoter: NONE USED.

The structures appear in SMILES notation.

As for `O[C@@H](CS)[C@@H](O)CS`, the “tumour outcome (control, treated, inhibition, significance)” value is, setting by setting: (Carcinogen: TRANS-5-AMINO-3-[2-(5-NITRO-2-FURYL)VINYL]-1,2,4-OXADIAZOLE;SQL8506, 28754-68-9, Carcinogen: TRANS-5-AMINO-3-[2-(5-NITRO-2-FURYL)VINYL]-1,2,4-OXADIAZOLE;SQL8506, 28754-68-9, Dose [Inhibitor]: 100 MG/KG 16 HR BEFORE THE 1ST CARCINOGEN DOSE FOLLOWED BY ADDITIONAL INJECTIONS IMMEDIATELY BEFORE EACH DOSE OF CARCINO, Route [Inhibitor]: INTRAPERITONEAL, Species: MOUSE, Strain/Sex: CD-1/FEMALE, Target Tissue: Type of Lesion: HEMATOPOIETIC SYSTEM: MYELOID LEUKEMIA, Dose [Carcinogen]: 1 G/KG 2/D FOR 5 D EVERY 4 WK FOR 3 COURSES OF TREATMENT) 7/137 (5%), 0/30 (0%), 100%, not calculated; (Carcinogen: TRANS-5-AMINO-3-[2-(5-NITRO-2-FURYL)VINYL]-1,2,4-OXADIAZOLE;SQL8506, 28754-68-9, Carcinogen: TRANS-5-AMINO-3-[2-(5-NITRO-2-FURYL)VINYL]-1,2,4-OXADIAZOLE;SQL8506, 28754-68-9, Dose [Inhibitor]: 100 MG/KG 16 HR BEFORE THE 1ST CARCINOGEN DOSE FOLLOWED BY ADDITIONAL INJECTIONS IMMEDIATELY BEFORE EACH DOSE OF CARCINO, Route [Inhibitor]: INTRAPERITONEAL, Species: MOUSE, Strain/Sex: CD-1/FEMALE, Target Tissue: Type of Lesion: LYMPHOID TISSUE: NONTHYMIC LYMPHOMA, Dose [Carcinogen]: 1 G/KG 2/D FOR 5 D EVERY 4 WK FOR 3 COURSES OF TREATMENT) 8/137 (6%), 2/30 (7%), -17%, not calculated; (Carcinogen: TRANS-5-AMINO-3-[2-(5-NITRO-2-FURYL)VINYL]-1,2,4-OXADIAZOLE;SQL8506, 28754-68-9, Carcinogen: TRANS-5-AMINO-3-[2-(5-NITRO-2-FURYL)VINYL]-1,2,4-OXADIAZOLE;SQL8506, 28754-68-9, Dose [Inhibitor]: 100 MG/KG 16 HR BEFORE THE 1ST CARCINOGEN DOSE FOLLOWED BY ADDITIONAL INJECTIONS IMMEDIATELY BEFORE EACH DOSE OF CARCINO, Route [Inhibitor]: INTRAPERITONEAL, Species: MOUSE, Strain/Sex: CD-1/FEMALE, Target Tissue: Type of Lesion: LYMPHOID TISSUE: THYMIC LYMPHOMA, Dose [Carcinogen]: 1 G/KG 2/D FOR 5 D EVERY 4 WK FOR 3 COURSES OF TREATMENT) 22/137 (16%), 4/30 (13%), 19%, not calculated; (Carcinogen: TRANS-5-AMINO-3-[2-(5-NITRO-2-FURYL)VINYL]-1,2,4-OXADIAZOLE;SQL8506, 28754-68-9, Carcinogen: TRANS-5-AMINO-3-[2-(5-NITRO-2-FURYL)VINYL]-1,2,4-OXADIAZOLE;SQL8506, 28754-68-9, Dose [Inhibitor]: 100 MG/KG 16 HR BEFORE THE 1ST CARCINOGEN DOSE FOLLOWED BY ADDITIONAL INJECTIONS IMMEDIATELY BEFORE EACH DOSE OF CARCINO, Route [Inhibitor]: INTRAPERITONEAL, Species: MOUSE, Strain/Sex: CD-1/FEMALE, Target Tissue: Type of Lesion: STOMACH: SQUAMOUS CARCINOMA, Dose [Carcinogen]: 1 G/KG 2/D FOR 5 D EVERY 4 WK FOR 3 COURSES OF TREATMENT) 60/137 (44%), 18/30 (60%), -36%, not calculated.
For `O=[Se]=O`, the “tumour outcome (control, treated, inhibition, significance)” value is 85%, 100%, -18%, not calculated (Carcinogen: N-2-FLUORENYLACETMIDE, 53-96-3, Dose [Inhibitor]: 0.1 PPM IN DIET DAILY STARTING SIMULTANEOUSLY WITH CARCINOGEN TREATMENT AT AGE 35 D AND CONTINUING FOR DURATION OF STUDY, Route [Inhibitor]: ORAL, Species: RAT, Strain/Sex: OSU-BROWN/FEMALE, Target Tissue: Type of Lesion: LIVER: HEPATOMA, Dose [Carcinogen]: 150 PPM IN DIET DAILY FOR DURATION OF STUDY); 94%, 100%, -6%, not calculated (Carcinogen: N-2-FLUORENYLACETMIDE, 53-96-3, Dose [Inhibitor]: 0.1 PPM IN DIET DAILY STARTING SIMULTANEOUSLY WITH CARCINOGEN TREATMENT AT AGE 35 D AND CONTINUING FOR DURATION OF STUDY, Route [Inhibitor]: ORAL, Species: RAT, Strain/Sex: OSU-BROWN/FEMALE, Target Tissue: Type of Lesion: MAMMARY GLAND: ADENOCARCINOMA, Dose [Carcinogen]: 150 PPM IN DIET DAILY FOR DURATION OF STUDY); 85%, 80%, 6%, not calculated (Carcinogen: N-2-FLUORENYLACETMIDE, 53-96-3, Dose [Inhibitor]: 0.5 PPM IN DIET DAILY STARTING SIMULTANEOUSLY WITH CARCINOGEN TREATMENT AT AGE 35 D AND CONTINUING FOR DURATION OF STUDY, Route [Inhibitor]: ORAL, Species: RAT, Strain/Sex: OSU-BROWN/FEMALE, Target Tissue: Type of Lesion: LIVER: HEPATOMA, Dose [Carcinogen]: 150 PPM IN DIET DAILY FOR DURATION OF STUDY); 94%, 85%, 10%, not calculated (Carcinogen: N-2-FLUORENYLACETMIDE, 53-96-3, Dose [Inhibitor]: 0.5 PPM IN DIET DAILY STARTING SIMULTANEOUSLY WITH CARCINOGEN TREATMENT AT AGE 35 D AND CONTINUING FOR DURATION OF STUDY, Route [Inhibitor]: ORAL, Species: RAT, Strain/Sex: OSU-BROWN/FEMALE, Target Tissue: Type of Lesion: MAMMARY GLAND: ADENOCARCINOMA, Dose [Carcinogen]: 150 PPM IN DIET DAILY FOR DURATION OF STUDY); 85%, 50%, 41%, not calculated (Carcinogen: N-2-FLUORENYLACETMIDE, 53-96-3, Dose [Inhibitor]: 2.5 PPM IN DIET DAILY STARTING SIMULTANEOUSLY WITH CARCINOGEN TREATMENT AT AGE 35 D AND CONTINUING FOR DURATION OF STUDY, Route [Inhibitor]: ORAL, Species: RAT, Strain/Sex: OSU-BROWN/FEMALE, Target Tissue: Type of Lesion: LIVER: HEPATOMA, Dose [Carcinogen]: 150 PPM IN DIET DAILY FOR DURATION OF STUDY); 94%, 68%, 28%, not calculated (Carcinogen: N-2-FLUORENYLACETMIDE, 53-96-3, Dose [Inhibitor]: 2.5 PPM IN DIET DAILY STARTING SIMULTANEOUSLY WITH CARCINOGEN TREATMENT AT AGE 35 D AND CONTINUING FOR DURATION OF STUDY, Route [Inhibitor]: ORAL, Species: RAT, Strain/Sex: OSU-BROWN/FEMALE, Target Tissue: Type of Lesion: MAMMARY GLAND: ADENOCARCINOMA, Dose [Carcinogen]: 150 PPM IN DIET DAILY FOR DURATION OF STUDY). The “tumour outcome (control, treated, inhibition, significance)” value reads like this: (Carcinogen: NONE USED, Dose [Inhibitor]: 0.1 PPM IN DRINKING WATER DAILY FOR 22 MO STARTING AT AGE 2 MO AND CONTINUING FOR DURATION OF STUDY (STUDY DURATION: 22, Route [Inhibitor]: ORAL, Species: MOUSE, Strain/Sex: C3H/FEMALE, Target Tissue: Type of Lesion: MAMMARY GLAND: ADENOCARCINOMA) 42%, 25%, 40%, not calculated; (Carcinogen: NONE USED, Dose [Inhibitor]: 0.5 PPM IN DRINKING WATER DAILY FOR 22 MO STARTING AT AGE 2 MO AND CONTINUING FOR DURATION OF STUDY (STUDY DURATION: 22, Route [Inhibitor]: ORAL, Species: MOUSE, Strain/Sex: C3H/FEMALE, Target Tissue: Type of Lesion: MAMMARY GLAND: ADENOCARCINOMA) 42%, 19%, 55%, not calculated; (Carcinogen: NONE USED, Dose [Inhibitor]: 1 PPM IN DRINKING WATER DAILY FOR 22 MO STARTING AT AGE 2 MO AND CONTINUING FOR DURATION OF STUDY (STUDY DURATION: 22 MO, Route [Inhibitor]: ORAL, Species: MOUSE, Strain/Sex: C3H/FEMALE, Target Tissue: Type of Lesion: MAMMARY GLAND: ADENOCARCINOMA) 42%, 10%, 76%, not calculated; (Carcinogen: NONE USED, Dose [Inhibitor]: 2 PPM IN DRINKING WATER DAILY FOR DURATION OF STUDY (STUDY DURATION: 16 MO), Route [Inhibitor]: ORAL, Species: MOUSE, Strain/Sex: C3H/FEMALE, Target Tissue: Type of Lesion: MAMMARY GLAND: ADENOCARCINOMA) 82%, 10%, 88%, not calculated; (Carcinogen: NONE USED, Dose [Inhibitor]: 5 PPM IN DRINKING WATER DAILY STARTING AT AGE 1 MO AND CONTINUING FOR LIFE (STUDY DURATION: LIFE), Route [Inhibitor]: ORAL, Species: MOUSE, Strain/Sex: C3H/FEMALE, Target Tissue: Type of Lesion: MAMMARY GLAND: TUMOR) 82%, 36%, 56%, p<0.005; (Carcinogen: NONE USED, Dose [Inhibitor]: 15 PPM IN DRINKING WATER DAILY STARTING AT AGE 1 MO AND CONTINUING FOR LIFE (STUDY DURATION: LIFE), Route [Inhibitor]: ORAL, Species: MOUSE, Strain/Sex: C3H/FEMALE, Target Tissue: Type of Lesion: MAMMARY GLAND: TUMOR) 82%, 33%, 60%, p<0.005.
